Laboratory results taken from PubChem BioAssay AID1963851 (Molecular Pharmacology Branch, DTP, NCI, 2024).
pIC50: −log10 of the molar value.

Tested on: 188146-221-R-J1-PDC complex spheroid viability
Experiment: Anticancer human tumor 188146-221-R-J1-PDC patient-derived colon adenocarcinoma cell line growth inhibition [POLQ]
Conditions: for pIC50: curve of first compound; for viability, T/C: stronger effect = lower value
Outline: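 Patient-derived tumour cells were co-cultured with HUVEC and mesenchymal stem cells as multicellular spheroids at 37 °C. They were treated with POLQ inhibitors (novobiocin, ART-558, RP6685) alone or combined with other agents. Top concentrations were at or near clinical Cmax (otherwise 10 microM; SN-38 at 1 microM), decreasing in half-log steps.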

[1] = second compound 0.0316 µM, first compound 0.0316 µM
[2] = second compound 0.0316 µM, first compound 0.1 µM
[3] = second compound 0.0316 µM, first compound 0.316 µM
[4] = second compound 0.0316 µM, first compound 1 µM
[5] = second compound 0.0316 µM, first compound 3.16 µM
[6] = second compound 0.0316 µM, first compound 10 µM
[7] = second compound 0.1 µM, first compound 0.0316 µM
[8] = second compound 0.1 µM, first compound 0.1 µM
[9] = second compound 0.1 µM, first compound 0.316 µM
[10] = second compound 0.1 µM, first compound 1 µM
[11] = second compound 0.1 µM, first compound 3.16 µM
[12] = second compound 0.1 µM, first compound 10 µM
[13] = second compound 0.316 µM, first compound 0.0316 µM
[14] = second compound 0.316 µM, first compound 0.1 µM
[15] = second compound 0.316 µM, first compound 0.316 µM
[16] = second compound 0.316 µM, first compound 1 µM
[17] = second compound 0.316 µM, first compound 3.16 µM
[18] = second compound 0.316 µM, first compound 10 µM
[19] = second compound 1 µM, first compound 0.0316 µM
[20] = second compound 1 µM, first compound 0.1 µM
[21] = second compound 1 µM, first compound 0.316 µM
[22] = second compound 1 µM, first compound 1 µM
[23] = second compound 1 µM, first compound 3.16 µM
[24] = second compound 1 µM, first compound 10 µM
[25] = second compound 3.16 µM, first compound 0.0316 µM
[26] = second compound 3.16 µM, first compound 0.1 µM
[27] = second compound 3.16 µM, first compound 0.316 µM
[28] = second compound 3.16 µM, first compound 1 µM
[29] = second compound 3.16 µM, first compound 3.16 µM
[30] = second compound 3.16 µM, first compound 10 µM
[31] = second compound 10 µM, first compound 0.0316 µM
[32] = second compound 10 µM, first compound 0.1 µM
[33] = second compound 10 µM, first compound 0.316 µM
[34] = second compound 10 µM, first compound 1 µM
[35] = second compound 10 µM, first compound 3.16 µM
[36] = second compound 10 µM, first compound 10 µM
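Note: spheroids exposed to compounds for seven days.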
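Throughout, for viability, T/C: 100% = DMSO vehicle control viability.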

CCCS(=O)(=O)Nc1ccc(F)c(C(=O)c2c[nH]c3ncc(-c4ccc(Cl)cc4)cc23)c1F + Cc1cccc(N(C)C(=O)C2C(O)CCN2c2nc(C)cc(C(F)(F)F)c2C#N)c1
pIC50 (second compound 0.0316 µM): 5.01
pIC50 (second compound 0.1 µM): 5.17
pIC50 (second compound 0.316 µM): 5.19
pIC50 (second compound 1 µM): 5.19
pIC50 (second compound 3.16 µM): 5.15
pIC50 (second compound 10 µM): 5.23
viability, T/C [1]: 117%
viability, T/C [2]: 96.5%
viability, T/C [3]: 102%
viability, T/C [4]: 87.1%
viability, T/C [5]: 78.8%
viability, T/C [6]: 47.3%
viability, T/C [7]: 113%
viability, T/C [8]: 97.3%
viability, T/C [9]: 106%
viability, T/C [10]: 91%
viability, T/C [11]: 85.8%
viability, T/C [12]: 33.4%
viability, T/C [13]: 116%
viability, T/C [14]: 112%
viability, T/C [15]: 99.2%
viability, T/C [16]: 88.3%
viability, T/C [17]: 90.9%
viability, T/C [18]: 29.2%
viability, T/C [19]: 93.4%
viability, T/C [20]: 98.1%
viability, T/C [21]: 101%
viability, T/C [22]: 90.6%
viability, T/C [23]: 81.5%
viability, T/C [24]: 30.7%
viability, T/C [25]: 107%
viability, T/C [26]: 104%
viability, T/C [27]: 104%
viability, T/C [28]: 77.4%
viability, T/C [29]: 96.4%
viability, T/C [30]: 31%
viability, T/C [31]: 106%
viability, T/C [32]: 97.7%
viability, T/C [33]: 105%
viability, T/C [34]: 85.1%
viability, T/C [35]: 92.6%
viability, T/C [36]: 13.4%

COc1ccc([C@@H](O)c2cc(-c3ncnc4cc(N5CCOCC5)ccc34)c(F)cc2Cl)nn1 + Cc1cccc(N(C)C(=O)C2C(O)CCN2c2nc(C)cc(C(F)(F)F)c2C#N)c1
pIC50 (second compound 0.0316 µM): 5.24
pIC50 (second compound 0.1 µM): 5.25
pIC50 (second compound 0.316 µM): 5.33
pIC50 (second compound 1 µM): 5.33
pIC50 (second compound 3.16 µM): 5.31
pIC50 (second compound 10 µM): 5.73
viability, T/C [1]: 97.6%
viability, T/C [2]: 98%
viability, T/C [3]: 87.9%
viability, T/C [4]: 89.2%
viability, T/C [5]: 72%
viability, T/C [6]: 30.3%
viability, T/C [7]: 93.6%
viability, T/C [8]: 111%
viability, T/C [9]: 94.3%
viability, T/C [10]: 80.4%
viability, T/C [11]: 61.7%
viability, T/C [12]: 39.4%
viability, T/C [13]: 100%
viability, T/C [14]: 101%
viability, T/C [15]: 100%
viability, T/C [16]: 94%
viability, T/C [17]: 59.4%
viability, T/C [18]: 32%
viability, T/C [19]: 97.9%
viability, T/C [20]: 94.3%
viability, T/C [21]: 94.4%
viability, T/C [22]: 78.7%
viability, T/C [23]: 59.6%
viability, T/C [24]: 32.5%
viability, T/C [25]: 97.3%
viability, T/C [26]: 93.3%
viability, T/C [27]: 90.5%
viability, T/C [28]: 73.1%
viability, T/C [29]: 61.7%
viability, T/C [30]: 33.8%
viability, T/C [31]: 88.2%
viability, T/C [32]: 80.8%
viability, T/C [33]: 85.9%
viability, T/C [34]: 56.3%
viability, T/C [35]: 51.9%
viability, T/C [36]: 36.9%

Cn1ncnc1[C@H]1c2n[nH]c(=O)c3cc(F)cc(c23)N[C@@H]1c1ccc(F)cc1 + Cc1cccc(N(C)C(=O)C2C(O)CCN2c2nc(C)cc(C(F)(F)F)c2C#N)c1
pIC50 (second compound 0.0316 µM): < 7.00
pIC50 (second compound 0.1 µM): < 7.00
pIC50 (second compound 0.316 µM): < 7.00
pIC50 (second compound 1 µM): < 7.00
pIC50 (second compound 3.16 µM): < 7.00
pIC50 (second compound 10 µM): < 7.00
viability, T/C (second compound 0.0316 µM, first compound 0.000316 µM): 97.2%
viability, T/C (second compound 0.0316 µM, first compound 0.001 µM): 97.4%
viability, T/C (second compound 0.0316 µM, first compound 0.00316 µM): 91.8%
viability, T/C (second compound 0.0316 µM, first compound 0.01 µM): 98.3%
viability, T/C [1]: 99.3%
viability, T/C [2]: 88%
viability, T/C (second compound 0.1 µM, first compound 0.000316 µM): 106%
viability, T/C (second compound 0.1 µM, first compound 0.001 µM): 107%
viability, T/C (second compound 0.1 µM, first compound 0.00316 µM): 101%
viability, T/C (second compound 0.1 µM, first compound 0.01 µM): 84.8%
viability, T/C [7]: 89.9%
viability, T/C [8]: 103%
viability, T/C (second compound 0.316 µM, first compound 0.000316 µM): 101%
viability, T/C (second compound 0.316 µM, first compound 0.001 µM): 104%
viability, T/C (second compound 0.316 µM, first compound 0.00316 µM): 101%
viability, T/C (second compound 0.316 µM, first compound 0.01 µM): 101%
viability, T/C [13]: 90.8%
viability, T/C [14]: 104%
viability, T/C (second compound 1 µM, first compound 0.000316 µM): 107%
viability, T/C (second compound 1 µM, first compound 0.001 µM): 99.6%
viability, T/C (second compound 1 µM, first compound 0.00316 µM): 105%
viability, T/C (second compound 1 µM, first compound 0.01 µM): 102%
viability, T/C [19]: 89%
viability, T/C [20]: 93.5%
viability, T/C (second compound 3.16 µM, first compound 0.000316 µM): 100%
viability, T/C (second compound 3.16 µM, first compound 0.001 µM): 105%
viability, T/C (second compound 3.16 µM, first compound 0.00316 µM): 95.4%
viability, T/C (second compound 3.16 µM, first compound 0.01 µM): 90%
viability, T/C [25]: 95.4%
viability, T/C [26]: 94.2%
viability, T/C (second compound 10 µM, first compound 0.000316 µM): 96.4%
viability, T/C (second compound 10 µM, first compound 0.001 µM): 91.8%
viability, T/C (second compound 10 µM, first compound 0.00316 µM): 90.6%
viability, T/C (second compound 10 µM, first compound 0.01 µM): 87.8%
viability, T/C [31]: 90.8%
viability, T/C [32]: 94.6%
